The assay concerns the target T1, CILK1 (Homo sapiens, UniProt Q9UPZ9).
T1 construct: purchased protein (Abcam ab101774)
T1 sequence (Q9UPZ9 1-632): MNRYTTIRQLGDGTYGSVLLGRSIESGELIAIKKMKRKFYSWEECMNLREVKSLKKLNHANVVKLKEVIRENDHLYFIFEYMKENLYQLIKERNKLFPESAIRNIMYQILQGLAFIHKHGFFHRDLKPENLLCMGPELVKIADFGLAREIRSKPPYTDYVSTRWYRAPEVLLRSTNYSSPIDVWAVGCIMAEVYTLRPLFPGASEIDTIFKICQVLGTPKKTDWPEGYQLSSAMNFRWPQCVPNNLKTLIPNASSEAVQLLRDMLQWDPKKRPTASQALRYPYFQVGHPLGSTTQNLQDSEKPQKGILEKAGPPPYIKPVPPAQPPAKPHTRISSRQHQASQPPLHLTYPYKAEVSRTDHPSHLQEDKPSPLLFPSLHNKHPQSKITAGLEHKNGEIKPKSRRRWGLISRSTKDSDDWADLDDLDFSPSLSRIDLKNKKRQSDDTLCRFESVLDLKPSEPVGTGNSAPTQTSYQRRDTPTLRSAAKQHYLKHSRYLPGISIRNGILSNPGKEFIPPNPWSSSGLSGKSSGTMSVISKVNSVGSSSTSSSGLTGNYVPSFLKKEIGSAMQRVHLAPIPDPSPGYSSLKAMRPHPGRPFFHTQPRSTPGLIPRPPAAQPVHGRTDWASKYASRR
As to the kind of experiment: surface plasmon resonance, […] Langmuir fit. The note with it: 3D Dextran chip; 1.5625-25 μM analyte. The format is binding.

This is an account of results in paper PMC11077371, “Ciliogenesis-associated Kinase 1 Promotes Breast Cancer Cell Proliferation and Chemoresistance via Phosphorylating ERK1” (International Journal of Biological Sciences, 2024).

For `CCc1ccc2nc(Nc3nc(C)c(Cc4ccc(C)cc4)c(=O)[nH]3)nc(C)c2c1` [CILK1-C30], the affinity, expressed as Kd, was 108 nM.
